The test relates to vessels from preeclamptic rats / normal pregnant rats. In words: Perfusion of individual vessels dissected from rat models of preeclampsia and from normal pregnant rats with marinobufagenin. The text has this: It is elevated substantially more in preeclamptic rats.

We go through one molecule from patent US7439071B2, “Method of employing elevation of marinobufagenin in determining the presence of preeclampsia and related apparatus” (The Administrators of the Tulane Educational Fund, priority 2003, dated 2008).

Consider `C[C@]12CC[C@H](O)C[C@@]1(O)CC[C@@H]1[C@@H]2CC[C@]2(C)[C@@H](c3ccc(=O)oc3)C[C@H]3O[C@]132` [marinobufagenin], for which, for the setting “vessels from normal pregnant animals or rats perfused with marinobufagenin”, the “constriction of perfused vessels” value is “do not constrict”. In addition, the “constriction of perfused vessels as compared with the controlled circumstance (average)” value (vessels from preeclamptic rats perfused with marinobufagenin) is listed as “about 36%”.
